Experimental data from the supplement of paper PMC10307832.

Tests used:
Experiment in all cases: relative viability (nuclei count vs DMSO), 5 days (fraction); higher = more cells survive
Silmitasertib = compound: O=C(O)c1ccc2c(c1)nc(Nc1cccc(Cl)c1)c1ccncc12 [Silmitasertib]
Procedure, shortened: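 Lung cancer cell lines received five library-drug doses (not always all listed) spaced by √10, pinned on vehicle-anchored 1536-well plates after an overnight stay at 37 °C. Five days later, with no medium change, nuclei were Hoechst-stained, imaged at 4× and counted with MetaXpress. Viability is treated-well nuclei relative to vehicle-well nuclei, as a median across plates. Passing plates had control CV below 25% and at least one doubling.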

[1] = compound: O=C(O)c1ccc2c(c1)nc(Nc1cccc(Cl)c1)c1ccncc12 [Silmitasertib] + CCNC(=O)c1noc(-c2cc(C(C)C)c(O)cc2O)c1-c1ccc(CN2CCOCC2)cc1 [Luminespib] (partner 0.01 µM)
Procedure, shortened: (§1)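 Relative viability equals treated-well nuclei counts divided by vehicle-well nuclei counts. Counts came from 4× images of lung cancer cell lines grown in 1536-well plates for 5 days after pin-tool dosing on the day after seeding. Dosing used one drug alone or a fixed anchor-drug dose plus five library-drug doses (not always all listed) in √10 steps, and values are medians of duplicate plates.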

[2] = compound: O=C(O)c1ccc2c(c1)nc(Nc1cccc(Cl)c1)c1ccncc12 [Silmitasertib] + COc1cc2c(Oc3ccc(NC(=O)C4(C(=O)Nc5ccc(F)cc5)CC4)cc3F)ccnc2cc1OCCCN1CCOCC1 [Foretinib] (partner 0.25 µM)
Procedure, shortened: as §1

Silmitasertib + OSI-027 = compound: O=C(O)c1ccc2c(c1)nc(Nc1cccc(Cl)c1)c1ccncc12 [Silmitasertib] + COc1cccc2cc(-c3nc([C@H]4CC[C@H](C(=O)O)CC4)n4ncnc(N)c34)[nH]c12 [OSI-027] (partner 0.5 µM)
Procedure, shortened: as §1

[3] = compound: O=C(O)c1ccc2c(c1)nc(Nc1cccc(Cl)c1)c1ccncc12 [Silmitasertib] + Cc1cc(Nc2cc(N3CCN(C)CC3)nc(Sc3ccc(NC(=O)C4CC4)cc3)n2)n[nH]1 [Tozasertib] (partner 0.1 µM)
Procedure, shortened: as §1

[4] = compound: O=C(O)c1ccc2c(c1)nc(Nc1cccc(Cl)c1)c1ccncc12 [Silmitasertib] + Cc1nc(Nc2ncc(C(=O)Nc3c(C)cccc3Cl)s2)cc(N2CCN(CCO)CC2)n1 [Dasatinib] (partner 0.075 µM)
Procedure, shortened: as §1

[5] = compound: O=C(O)c1ccc2c(c1)nc(Nc1cccc(Cl)c1)c1ccncc12 [Silmitasertib] + N=C(N)NC(=N)NCCc1ccccc1 [Phenformin] (partner 250 µM)
Procedure, shortened: as §1

[6] = compound: O=C(O)c1ccc2c(c1)nc(Nc1cccc(Cl)c1)c1ccncc12 [Silmitasertib] + CC(=O)Nc1cccc(-n2c(=O)n(C3CC3)c(=O)c3c(Nc4ccc(I)cc4F)n(C)c(=O)c(C)c32)c1 [Trametinib] (partner 0.02 µM)
Procedure, shortened: as §1

[7] = compound: O=C(O)c1ccc2c(c1)nc(Nc1cccc(Cl)c1)c1ccncc12 [Silmitasertib] + CC(=O)c1c(C)c2cnc(Nc3ccc(N4CCNCC4)cn3)nc2n(C2CCCC2)c1=O [Palbociclib] (partner 0.5 µM)
Procedure, shortened: as §1

Silmitasertib + AZD7762 = compound: O=C(O)c1ccc2c(c1)nc(Nc1cccc(Cl)c1)c1ccncc12 [Silmitasertib] + NC(=O)Nc1cc(-c2cccc(F)c2)sc1C(=O)N[C@H]1CCCNC1 [AZD7762] (partner 0.2 µM)
Procedure, shortened: as §1

[8] = compound: O=C(O)c1ccc2c(c1)nc(Nc1cccc(Cl)c1)c1ccncc12 [Silmitasertib] + Nc1nc2[nH]cc(CCc3ccc(C(=O)N[C@@H](CCC(=O)O)C(=O)O)cc3)c2c(=O)[nH]1 [Pemetrexed] (partner 0.2 µM)
Procedure, shortened: as §1

[9] = compound: O=C(O)c1ccc2c(c1)nc(Nc1cccc(Cl)c1)c1ccncc12 [Silmitasertib] + Nc1ncn([C@H]2C[C@H](O)[C@@H](CO)O2)c(=O)n1 [Decitabine] (partner 2 µM)
Procedure, shortened: as §1

[10] = compound: O=C(O)c1ccc2c(c1)nc(Nc1cccc(Cl)c1)c1ccncc12 [Silmitasertib] + O=C(CCCCCCC(=O)Nc1ccccc1)NO [Vorinostat] (partner 1 µM)
Procedure, shortened: as §1

Silmitasertib + Olaparib = compound: O=C(O)c1ccc2c(c1)nc(Nc1cccc(Cl)c1)c1ccncc12 [Silmitasertib] + O=C(c1cc(Cc2n[nH]c(=O)c3ccccc23)ccc1F)N1CCN(C(=O)C2CC2)CC1 [Olaparib] (partner 8 µM)
Procedure, shortened: as §1

NCI-H1623
relative viability (Silmitasertib; 0.04 µM): 1.03
relative viability (Silmitasertib; 0.4 µM): 0.715
relative viability (Silmitasertib; 1.265 µM): 0.689
relative viability (Silmitasertib; 4 µM): 0.693
relative viability ([1]; first compound 0.04 µM): 0.46
relative viability ([1]; first compound 0.4 µM): 0.4
relative viability ([1]; first compound 1.265 µM): 0.355
relative viability ([1]; first compound 4 µM): 0.343
relative viability ([2]; first compound 0.04 µM): 0.934
relative viability ([2]; first compound 0.4 µM): 0.572
relative viability ([2]; first compound 1.265 µM): 0.49
relative viability ([2]; first compound 4 µM): 0.536
relative viability (Silmitasertib + OSI-027; first compound 0.04 µM): 0.347
relative viability (Silmitasertib + OSI-027; first compound 0.4 µM): 0.385
relative viability (Silmitasertib + OSI-027; first compound 1.265 µM): 0.368
relative viability (Silmitasertib + OSI-027; first compound 4 µM): 0.357
relative viability ([3]; first compound 0.04 µM): 0.422
relative viability ([3]; first compound 0.4 µM): 0.392
relative viability ([3]; first compound 1.265 µM): 0.36
relative viability ([3]; first compound 4 µM): 0.371
relative viability ([4]; first compound 0.04 µM): 0.576
relative viability ([4]; first compound 0.4 µM): 0.456
relative viability ([4]; first compound 1.265 µM): 0.297
relative viability ([4]; first compound 4 µM): 0.361
relative viability ([5]; first compound 0.04 µM): 0.563
relative viability ([5]; first compound 0.4 µM): 0.498
relative viability ([5]; first compound 1.265 µM): 0.446
relative viability ([5]; first compound 4 µM): 0.382

NCI-H1648
relative viability (Silmitasertib; 0.04 µM): 1.26
relative viability (Silmitasertib; 0.4 µM): 0.63
relative viability (Silmitasertib; 1.265 µM): 0.889
relative viability (Silmitasertib; 4 µM): 0.684
relative viability ([6]; first compound 0.04 µM): 0.634
relative viability ([6]; first compound 0.4 µM): 0.366
relative viability ([6]; first compound 1.265 µM): 0.474
relative viability ([6]; first compound 4 µM): 0.527
relative viability ([7]; first compound 0.04 µM): 0.256
relative viability ([7]; first compound 0.4 µM): 0.229
relative viability ([7]; first compound 1.265 µM): 0.301
relative viability ([7]; first compound 4 µM): 0.327
relative viability (Silmitasertib + OSI-027; first compound 0.04 µM): 0.255
relative viability (Silmitasertib + OSI-027; first compound 1.265 µM): 0.267
relative viability (Silmitasertib + OSI-027; first compound 4 µM): 0.245
relative viability ([3]; first compound 0.04 µM): 0.61
relative viability ([3]; first compound 1.265 µM): 0.283
relative viability ([3]; first compound 4 µM): 0.363
relative viability (Silmitasertib + AZD7762; first compound 0.04 µM): 0.709
relative viability (Silmitasertib + AZD7762; first compound 0.4 µM): 0.624
relative viability (Silmitasertib + AZD7762; first compound 1.265 µM): 0.739
relative viability (Silmitasertib + AZD7762; first compound 4 µM): 0.423
relative viability ([8]; first compound 0.04 µM): 0.689
relative viability ([8]; first compound 0.4 µM): 0.699
relative viability ([8]; first compound 1.265 µM): 0.863
relative viability ([8]; first compound 4 µM): 0.679
relative viability ([9]; first compound 0.04 µM): 0.49
relative viability ([9]; first compound 0.4 µM): 0.55
relative viability ([9]; first compound 1.265 µM): 0.494
relative viability ([9]; first compound 4 µM): 0.559
relative viability ([10]; first compound 0.04 µM): 0.435
relative viability ([10]; first compound 0.4 µM): 0.517
relative viability ([10]; first compound 1.265 µM): 0.271
relative viability ([10]; first compound 4 µM): 0.574
relative viability (Silmitasertib + Olaparib; first compound 0.04 µM): 0.84
relative viability (Silmitasertib + Olaparib; first compound 0.4 µM): 0.525
relative viability (Silmitasertib + Olaparib; first compound 1.265 µM): 1.07
relative viability (Silmitasertib + Olaparib; first compound 4 µM): 0.876

NCI-H2342
relative viability (Silmitasertib; 0.04 µM): 1.1
relative viability (Silmitasertib; 0.4 µM): 0.839
relative viability (Silmitasertib; 1.265 µM): 0.998
relative viability (Silmitasertib; 4 µM): 0.839
relative viability ([6]; first compound 0.04 µM): 0.909
relative viability ([6]; first compound 1.265 µM): 0.781
relative viability ([6]; first compound 4 µM): 0.811
relative viability ([7]; first compound 0.04 µM): 0.522
relative viability ([7]; first compound 1.265 µM): 0.494
relative viability ([7]; first compound 4 µM): 0.495
relative viability ([1]; first compound 0.04 µM): 0.708
relative viability ([1]; first compound 0.4 µM): 0.729
relative viability ([1]; first compound 1.265 µM): 0.715
relative viability ([1]; first compound 4 µM): 0.778
relative viability ([2]; first compound 0.04 µM): 1.19
relative viability ([2]; first compound 0.4 µM): 0.981
relative viability ([2]; first compound 1.265 µM): 0.889
relative viability ([2]; first compound 4 µM): 1.14
relative viability (Silmitasertib + OSI-027; first compound 0.04 µM): 0.762
relative viability (Silmitasertib + OSI-027; first compound 0.4 µM): 0.606
relative viability (Silmitasertib + OSI-027; first compound 1.265 µM): 0.504
relative viability (Silmitasertib + OSI-027; first compound 4 µM): 0.539
relative viability ([3]; first compound 0.04 µM): 0.479
relative viability ([3]; first compound 0.4 µM): 0.479
relative viability ([3]; first compound 1.265 µM): 0.374
relative viability ([3]; first compound 4 µM): 0.445
relative viability ([4]; first compound 0.04 µM): 0.33
relative viability ([4]; first compound 0.4 µM): 0.295
relative viability ([4]; first compound 1.265 µM): 0.271
relative viability ([4]; first compound 4 µM): 0.298
relative viability ([5]; first compound 0.04 µM): 0.614
relative viability ([5]; first compound 0.4 µM): 0.713
relative viability ([5]; first compound 1.265 µM): 0.465
relative viability ([5]; first compound 4 µM): 0.493
relative viability (Silmitasertib + AZD7762; first compound 0.04 µM): 0.471
relative viability (Silmitasertib + AZD7762; first compound 1.265 µM): 0.387
relative viability (Silmitasertib + AZD7762; first compound 4 µM): 0.401
relative viability ([8]; first compound 0.04 µM): 0.77
relative viability ([8]; first compound 1.265 µM): 0.72
relative viability ([8]; first compound 4 µM): 0.681
relative viability ([9]; first compound 0.04 µM): 0.791
relative viability ([9]; first compound 1.265 µM): 0.79
relative viability ([9]; first compound 4 µM): 0.743
relative viability ([10]; first compound 0.04 µM): 0.782
relative viability ([10]; first compound 1.265 µM): 0.746
relative viability ([10]; first compound 4 µM): 0.727
relative viability (Silmitasertib + Olaparib; first compound 0.04 µM): 0.422
relative viability (Silmitasertib + Olaparib; first compound 1.265 µM): 0.434
relative viability (Silmitasertib + Olaparib; first compound 4 µM): 0.426
